ChEMBL document CHEMBL1156651, “Viridamides A and B, lipodepsipeptides with antiprotozoal activity from the marine cyanobacterium Oscillatoria nigro-viridis” (J Nat Prod, 2008)
Where a SMILES comes first, the peptide text is derived from it. [ ]: non-standard residue; d: D form. The star is where a group is joined. Hmpa(2S,3S) = CC[C@H](C)[C@H](O)C(=O)O; NMeI = CC[C@H](C)[C@H](NC)C(=O)O; NMeV = CN[C@H](C(=O)O)C(C)C; X1 = C#CCCCC(CCCC(=O)*)OC

How the values were obtained:
Format in all cases: functional, organism-based
[1] = tested on: Leishmania mexicana; assay: Antileishmanial activity against Leishmania mexicana promastigotes by DNA fluorescence method
[2] = tested on: Trypanosoma cruzi; assay: Antitrypanosomal activity against Trypanosoma cruzi Tulahuen C4 in vero cells assessed as intracellular growth inhibition of trypomastigote by beta-galactosidase reporter gene assay
[3] = tested on: Plasmodium falciparum; assay: Antimalarial activity against Plasmodium falciparum

Row | SMILES | IC50 [1] | IC50 [2] | IC50 [3]
1 | C[C@@H]1[C@H](O)[C@@H](C)/C=C/C=C/C=C/C=C/C=C/C=C/C=C/[C@H](O[C@@H]2O[C@H](C)[C@@H](O)[C@H](N)[C@@H]2O)C[C@@H]2O[C@](O)(C[C@@H](O)C[C@@H](O)[C@H](O)CC[C@@H](O)C[C@@H](O)CC(=O)O[C@H]1C)C[C@H](O)[C@H]2C(=O)O [AMPHOTERICIN B] | 100 nM |  | 
2 | CC1CS(=O)(=O)CCN1/N=C/c1ccc([N+](=O)[O-])o1 (stereo not given) [NIFURTIMOX] |  | 10000 nM | 
3 | C#CCCCC(CCCC(=O)N(C)[C@H](C(=O)N[C@H](C(=O)N[C@H](C(=O)N(C)[C@H](C(=O)O[C@H](C(=O)N1CCC[C@H]1C(=O)OC)[C@@H](C)CC)C(C)C)C(C)C)C(C)C)[C@@H](C)CC)OC (stereo partly drawn) [VIRIDAMIDE A] (X1-[NMeI]VV[NMeV][Hmpa(2S,3S)]P-OMe) | 1500 nM | 1100 nM | 5800 nM
